Assay results: US11279733B2, “Peptide antibiotics” (priority 2017, dated 2022)
≈ marks a conversion by molar mass, not a printed value. Positions of bridges follow the written chain, without caps; N, C: chain ends. Non-standard residues stand in square brackets, D forms with d. Residues, ends and D or L forms follow the SMILES beside them. *: point of attachment. Decanoyl(3R-OH) = CCCCCCC[C@@H](O)CC(=O)*; dBip = N[C@H](Cc1ccc(-c2ccccc2)cc1)C(=O)O; dIgl = N[C@@H](C(=O)O)C1Cc2ccccc2C1; Igl = N[C@H](C(=O)O)C1Cc2ccccc2C1; Tle = CC(C)(C)[C@H](N)C(=O)O; Octanoyl = CCCCCCCC(=O)*; dDap = NC[C@@H](N)C(=O)O; Dab = NCC[C@H](N)C(=O)O

Assays:
[1] = in vitro; details: for CC50 at 24 h: human
Method in brief: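 Compound exposure lasted 24 h, following 24 h attachment of 4000 cells/well at 37° C under 5% CO2.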

[2] = tested on: K. pneumoniae GN_102 PmxR; details: GN 102 PmxR
Method in brief: (§1)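 Mid-log cultures grown in Mueller Hinton broth at 37° C were tested by 2-fold broth microdilution at 5×10^5 CFU/mL final. Compounds were dissolved in water and tested over a final range of 32 to 0.015 μg/mL.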

[3] = tested on: K. pneumoniae ATCC 700603, MDR; details: ATCC 700603
Method in brief: as §1

[4] = tested on: K. pneumoniae GN_106, PmxR; details: GN 106, PmxR
Method in brief: as §1

[5] = tested on: P. aeruginosa GN_105, PmxR; details: GN 105, PmxR
Method in brief: as §1

[6] = tested on: E. coli ATCC 25922; details: ATCC 25922
Method in brief: as §1

[7] = tested on: K. pneumoniae ATCC BAA-2146, NDM-1 pos; details: ATCC BAA-2146
Method in brief: as §1

[8] = tested on: A. baumannii GN_093 PmxR; details: GN 093 PmxR
Method in brief: as §1

[9] = tested on: P. aeruginosa GN_043, PmxR; details: polymyxin-resistant
Method in brief: as §1

[10] = tested on: K. pneumoniae ATCC 13883; details: ATCC 13883
Method in brief: as §1

[11] = tested on: P. aeruginosa ATCC 27853; details: ATCC 27853
Method in brief: as §1

[12] = tested on: S. aureus ATCC 25923, MSSA; details: ATCC 25923
Method in brief: as §1

[13] = tested on: A. baumannii ATCC 19606; details: ATCC 19606
Method in brief: as §1

Compound | CC50 at 24 h [1] [µM] | MIC K. pneumoniae GN_102 PmxR [2] [µg/mL] | MIC K. pneumoniae ATCC 700603, MDR [3] [µg/mL] | MIC K. pneumoniae GN_106, PmxR [4] [µg/mL] | MIC P. aeruginosa GN_105, PmxR [5] [µg/mL] | MIC E. coli ATCC 25922 [6] [µg/mL] | MIC K. pneumoniae ATCC BAA-2146, NDM-1 pos [7] [µg/mL] | MIC A. baumannii GN_093 PmxR [8] [µg/mL] | MIC P. aeruginosa GN_043, PmxR [9] [µg/mL] | MIC K. pneumoniae ATCC 13883 [10] [µg/mL] | MIC P. aeruginosa ATCC 27853 [11] [µg/mL] | MIC S. aureus ATCC 25923, MSSA [12] [µg/mL] | MIC A. baumannii ATCC 19606 [13] [µg/mL] | CC50 [1] [µM]
CCCCCCC[C@@H](O)CC(=O)N[C@H](CCCNC(=N)N)C(=O)N[C@H]1CCNC(=O)[C@H](Cc2c[nH]c3ccccc23)NC(=O)[C@H](CCN)NC(=O)[C@H](CCN)NC(=O)[C@H](CC(C)C)NC(=O)[C@@H](Cc2ccccc2)NC(=O)[C@H](CCN)NC1=O [compound 8884, nC10-3(R)OH-D-Arg-cyc[L-Dab-L-Dab-D-Phe-L-Leu-L-Dab-L-Dab-L-Trp]] ({Decanoyl(3R-OH)}-[dR][Dab][Dab][dF]L[Dab][Dab]W; lactam 2-C) | 73 | 32 (≈ 27.3 µM) | 4 (≈ 3.41 µM) | 16 (≈ 13.6 µM) | 16 (≈ 13.6 µM) | 4 (≈ 3.41 µM) | 8 (≈ 6.82 µM) | 32 (≈ 27.3 µM) | 4 (≈ 3.41 µM) | 16 (≈ 13.6 µM) | 4 (≈ 3.41 µM) | 16 (≈ 13.6 µM) | 32 (≈ 27.3 µM) | 
CCCCCCCC(=O)N[C@H](CN)C(=O)N[C@H]1CCNC(=O)[C@H](Cc2c[nH]c3ccccc23)NC(=O)[C@H](CCN)NC(=O)[C@H](CCN)NC(=O)[C@H](CC(C)C)NC(=O)[C@@H](Cc2ccccc2)NC(=O)[C@H](CCN)NC1=O [compound 8887, nC7CO-D-Dap-cyc[L-Dab-L-Dab-D-Phe-L-Leu-L-Dab-L-Dab-L-Trp]] (Octanoyl-[dDap][Dab][Dab][dF]L[Dab][Dab]W; lactam 2-C) | 190 | 32 (≈ 30.2 µM) | 4 (≈ 3.78 µM) | 16 (≈ 15.1 µM) | 8 (≈ 7.55 µM) | 8 (≈ 7.55 µM) | 8 (≈ 7.55 µM) | >32 | 2 (≈ 1.89 µM) | 16 (≈ 15.1 µM) | 2 (≈ 1.89 µM) | 8 (≈ 7.55 µM) | 32 (≈ 30.2 µM) | 
CCCCCCC[C@@H](O)CC(=O)N[C@H](CN)C(=O)N[C@H]1CCNC(=O)[C@H](Cc2c[nH]c3ccccc23)NC(=O)[C@H](CCCNC(=N)N)NC(=O)[C@H](CCCCN)NC(=O)[C@H](C2Cc3ccccc3C2)NC(=O)[C@@H](Cc2ccccc2)NC(=O)[C@H](CCN)NC1=O [compound 8888, 3(R)OH-nC9CO-D-Dap-cyc[L-Dab-L-Dab-D-Phe-L-indanylgly-L-Lys-L-Arg-L-Trp]] ({Decanoyl(3R-OH)}-[dDap][Dab][Dab][dF][Igl]KRW; lactam 2-C) |  | 4 (≈ 3.21 µM) | 2 (≈ 1.6 µM) | 4 (≈ 3.21 µM) | 2 (≈ 1.6 µM) | 2 (≈ 1.6 µM) | 2 (≈ 1.6 µM) | 8 (≈ 6.41 µM) | 4 (≈ 3.21 µM) | 4 (≈ 3.21 µM) | 4 (≈ 3.21 µM) | 2 (≈ 1.6 µM) | 4 (≈ 3.21 µM) | 67
CCCCCCC[C@@H](O)CC(=O)N[C@H](CN)C(=O)N[C@H]1CCNC(=O)[C@H](Cc2c[nH]c3ccccc23)NC(=O)[C@H](CCCCN)NC(=O)[C@H](CCCNC(=N)N)NC(=O)[C@H](C2Cc3ccccc3C2)NC(=O)[C@@H](Cc2ccccc2)NC(=O)[C@H](CCN)NC1=O [compound 8890, 3(R)OH-nC9CO-D-Dap-cyc[L-Dab-L-Dab-D-Phe-L-indanylgly-L-Arg-L-Lys-L-Trp]] ({Decanoyl(3R-OH)}-[dDap][Dab][Dab][dF][Igl]RKW; lactam 2-C) | 67 | 4 (≈ 3.21 µM) | 2 (≈ 1.6 µM) | 4 (≈ 3.21 µM) | 2 (≈ 1.6 µM) | 2 (≈ 1.6 µM) | 4 (≈ 3.21 µM) | 8 (≈ 6.41 µM) | 4 (≈ 3.21 µM) | 2 (≈ 1.6 µM) | 4 (≈ 3.21 µM) | 2 (≈ 1.6 µM) | 8 (≈ 6.41 µM) | 
CCCCCCC[C@@H](O)CC(=O)N[C@H](CN)C(=O)N[C@H]1CCNC(=O)[C@H](Cc2c[nH]c3ccccc23)NC(=O)[C@H](CCCNC(=N)N)NC(=O)[C@H](CCCCN)NC(=O)[C@H](C(C)(C)C)NC(=O)[C@@H](Cc2ccc(-c3ccccc3)cc2)NC(=O)[C@H](CCN)NC1=O [compound 8892, 3(R)OH-nC9CO-D-Dap-cyc[L-Dab-L-Dab-D-Bip-L-tert-Leu-L-Lys-L-Arg-L-Trp]] ({Decanoyl(3R-OH)}-[dDap][Dab][Dab][dBip][Tle]KRW; lactam 2-C) | > 300 | 8 (≈ 6.33 µM) | 4 (≈ 3.17 µM) | 8 (≈ 6.33 µM) | 4 (≈ 3.17 µM) | 4 (≈ 3.17 µM) | 4 (≈ 3.17 µM) | 8 (≈ 6.33 µM) | 4 (≈ 3.17 µM) | 8 (≈ 6.33 µM) | 8 (≈ 6.33 µM) | 4 (≈ 3.17 µM) | 8 (≈ 6.33 µM) | 
CCCCCCC[C@@H](O)CC(=O)N[C@H](CN)C(=O)N[C@H]1CCNC(=O)[C@H](Cc2c[nH]c3ccccc23)NC(=O)[C@H](CCCNC(=N)N)NC(=O)[C@H](CCCCN)NC(=O)[C@H](CC(C)C)NC(=O)[C@@H](C2Cc3ccccc3C2)NC(=O)[C@H](CCN)NC1=O [compound 8896, 3(R)OH-nC9CO-D-Dap-cyc[L-Dab-L-Dab-D-indanylgly-L-Leu-L-Lys-L-Arg-L-Trp]] ({Decanoyl(3R-OH)}-[dDap][Dab][Dab][dIgl]LKRW; lactam 2-C) | 102 | 16 (≈ 13.2 µM) | 2 (≈ 1.65 µM) | 4 (≈ 3.3 µM) | 2 (≈ 1.65 µM) | 2 (≈ 1.65 µM) | 2 (≈ 1.65 µM) | 16 (≈ 13.2 µM) | 4 (≈ 3.3 µM) | 8 (≈ 6.59 µM) | 4 (≈ 3.3 µM) | 2 (≈ 1.65 µM) | 8 (≈ 6.59 µM) | 
